Measured values: patent US12577138B2, “Using Daphnia for bioremediation” (priority 2019, dated 2026)

Test system: Daphnia magna genotype pools
Assay: Viability of Daphnia magna genotype pools (1999, 1980, 1960) exposed to Carbaryl for four weeks
Format: in vivo
Details: Carbaryl 10 μg/L
Method: The ability to thrive of different Daphnia magna genotype pools resurrected from 1999, 1980, and 1960, was tested in presence of high concentrations of the carbamate insecticide Carbaryl (10 μg/L). Carbamate pesticides have been used at high levels since the 1970s, and so carbamate pesticides represent a common contaminant to current wastewater.
The three genotype pools were exposed to high concentrations of the carbamate insecticide Carbaryl in replicated large aquaria of 10 L. The aquaria contained borehole water to which a known concentration of Carbaryl was added. Each pool comprised different genotypes but the number of individuals in each pool was identical.
Prior to the exposure, the genotypes were individually cultured for two generations in the following conditions to control for maternal effects and synchronize reproduction: 20° C.; long photoperiod (16:8 light:dark regime); feed daily with 0.8 mg Carbon/L of C. vulgaris; medium was renewed every second day. After this phase, five 24-48 h old juveniles from the second brood of the third generation from 7 genotypes of each pool were randomly assigned to three replicated 10 L aquaria resulting in a total of 105 animals per aquarium (5 juveniles×7 genotypes×3 pools). The aquaria were then exposed to Carbaryl for four weeks (3 clonal generations). […]
The initial occurrence of each pool of genotypes was then compared to the random subset of animals sampled at the end of the experiment and genetically fingerprinted. This allowed to quantify changes in the occurrence of pool of genotypes from the three initially equally inoculated three pools. Changes in the occurrence of each pool of genotypes between the inoculum and the end of the experiment were quantified with a chi-squared test using the “stats” package in R v. […]

## CNC(=O)Oc1cccc2ccccc12 [Carbaryl]
1960 pool
  change in occurrence of genotypes versus initial inoculum: did not experience a significant change in the number of genotypes
1980 pool
  change in occurrence of genotypes versus initial inoculum: significantly decrease in the number of genotypes and almost disappeared
1999 pool
  change in occurrence of genotypes versus initial inoculum: did not experience a significant change in the number of genotypes
